In the assay the test system is P388 leukemia. The assay is described as follows: NCI tumour cell line growth inhibition, 48 h.

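Interpolation was linear, between the two tested concentrations surrounding the appropriate level; five concentrations were tested over 48 hours in 96-well plates. Definition used: TGI = concentration required for complete inhibition of growth.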

The compound `CS(=O)(=O)OCCCNCCCOS(C)(=O)=O` registered a TGI of 6.52 mM.

Values taken from PubChem BioAssay (NCI).
